Laboratory results reported in patent publication US12158464B2, “Methods for modeling disease tissue using three-dimensional tissue systems” (priority 2013, dated 2024).
Entries after “also recorded” stand apart in the source; their conditions may differ.

Experiments:
[1] = system: hESC-derived cardiomyocyte tissue strands; assay: α-actinin immunostaining and confocal microscopy of NO-treated tissue strands; type: cell-based, human; details: NO treatment by perfusion, vs control tissue strands
Procedure: Tissue strands were fixed with 4% parafornaldehyde, permeablized by 0.25% Triton X-100, and blocked by 10% bovine serum albumin (BSA). Immunostaining was performed using the following antibodies: mouse anti-cardiac Troponin T (cTnT) (Abcam; 1:100), mouse anti-α-actinin (Abcam; 1:200) and anti-rabbit-TRITC (Invitrogen; 1:200), anti-mouse-TRITC (Jackson Immuno Research; 1:200). Nuclei were counterstained with 4′,6-diamidino-2-phenylindole (DAPI) (Biotium; 1:100). Phalloidin-Alexa 660 (Introgen; 1:600) was used to stain F-actin fibers. For confocal microscopy, the stained cardiac tissue strands were visualized under an inverted confocal microscope (Olympus IX81) or an upright confocal microscope (Zeiss LSM 510).
NO treatment of human cardiac tissue strands was carried out. On day 7, the NO treatment of human cardiac tissue strand was initiated by perfusing the 200 mM SNP solution and the peristaltic pump was stopped once the SNP solution was perfused through the tubing. The beating activities of the human cardiac tissue strands were recorded at 16.67 frames/second before treatment and 24 hr post-treatment by Olympus IX81 while the tissue strands were kept at 37° C. The beating activities of the human cardiac tissue strands were quantified by the image analysis method described by Sage et al^28. […]

[2] = system: hESC-derived cardiomyocyte tissue strands; assay: NO treatment of perfusable human cardiac tissue strands, beating activity by image analysis; type: cell-based; details: 24 hr NO treatment by perfusion of 200 mM SNP
Procedure: NO treatment of human cardiac tissue strands was carried out. On day 7, the NO treatment of human cardiac tissue strand was initiated by perfusing the 200 mM SNP solution and the peristaltic pump was stopped once the SNP solution was perfused through the tubing. The beating activities of the human cardiac tissue strands were recorded at 16.67 frames/second before treatment and 24 hr post-treatment by Olympus IX81 while the tissue strands were kept at 37° C. The beating activities of the human cardiac tissue strands were quantified by the image analysis method described by Sage et al^28. In brief, the movements of one spot at the same location on the human cardiac tissue strand before and after the NO treatment were characterized.

[3] = system: hESC-derived CMs 3D tissues; type: cell-based, human
Procedure: Alternatively, to measure the force generated by the 3D engineered cardiac tissues, a bioreactor consisting of a PDMS tissue chamber capable of housing 8 micotissues was employed. […] Briefly, each well of the PDMS chamber had two posts which served as anchoring points for each cardiac tissue during gel compaction. Furthermore, by tracking a post's deflection, the force of contraction a cardiac tissue generated was determined. Cardiac tissues underwent 7 days of pre-culture followed by 7 days of treatment with endothelin-1, angiotensin II or isoproterenol. After the treatment, the contractile force of each cardiac tissue was determined by video recording, one at a time, the top surface of a post for each cardiac tissue while being paced at 0.5 or 1 Hz using CellSens software (Olympus). Each video was then exported as a series of Tiff images and opened in ImageJ. […] Using the method of superposition for a cantilever beam-partial uniform deflection, a point force was calculated and then normalized to the tissues cross sectional area (assumed circular) to determine the cardiac force per area.

hESC-CM biowires (Hes2) [4] = type: cell-based, human
Procedure: After preculture for 7 days, biowires were randomly transferred to 6-well plates and cultured in StemPro-34 media in the absence or presence of Isoproterenol (100 nM), Angiotensin II (200 nM [17]) or Endothelin-1 (150 nM)(Sigma) for 7 days. This protocol was chosen to replicate the chronic treatment of mice as described. […] Isolated single cells were seeded on Matrigel-coated glass cover slips before cell area and calcium transient measurements were performed. Immunostaining and Fluorescence Microscopy. Immunostaining was performed using the following antibodies: mouse anti-cTNT (1:100, Thermo Scientific; MS-295-P1), mouse anti-α-actinin (1:200, Abcam, ab9465), anti-mouse-Alexa Fluor 488 (1:400, Invitrogen, A21202), anti-rabbit-TRITC (1:400, Invitrogen, 81-6114). DAPI was used to counterstain nuclei. Phalloidin Alexa Fluor 660 (1:1000, Invitrogen, A22285) was used to detect actin fibers. The stained cells were visualized using a fluorescence microscope (Leica CTR6000) and images captured using the Leica Application Suite software. For confocal microscopy cells were visualized using a fluorescence confocal microscope (Zeiss LSM-510). Transmission Electron Microscopy (TEM). Tissue was fixed with 4% Paraformaldehyde, 1% Glutaraldehyde in 0.1 M PBS for at least 1 hr and washed 3 times with PBS pH 7.2. Post-fixation was done with 1% Osmium Tetraoxide in 0.1 M PBS, pH 7.2 for 1 hr and dehydrated using ethanol series from 25 to 100%. Tissue was infiltrated using Epon resin and polymerized in plastic dishes at 40° C. for 48 hr. Tissue was stained with Uranyl Acetate and Lead Citrate after sectioning. Imaging was performed at Hitachi H-7000 transmission electron microscope.

[5] = system: hESC-derived CMs 3D tissues; assay: Chronic drug exposure: cell viability in 3D tissues by live/dead staining; type: cell-based, human; details: vs non-treated controls
hESC-CM biowires (Hes2) [6] = assay: Chronic drug exposure: conduction velocity by optical mapping upon point stimulation; type: cell-based, human; details: point stimulation at the end of cultivation, vs non-treated controls
Procedure: Optical Mapping. […] Imaging was performed at 200 frames/s. […] Data analysis was performed using BrainVision software (Scimedia).

[7] = system: Hes2 hESC derived cardiomyocytes; type: cell-based, human; details: single cells dissociated at end of 7 days treatment, cardiac troponin T staining
Procedure: (§1) After preculture for 7 days, biowires were randomly transferred to 6-well plates and cultured in StemPro-34 media in the absence or presence of Isoproterenol (100 nM), Angiotensin II (200 nM [17]) or Endothelin-1 (150 nM)(Sigma) for 7 days. This protocol was chosen to replicate the chronic treatment of mice as described. […] Isolated single cells were seeded on Matrigel-coated glass cover slips before cell area and calcium transient measurements were performed.

[8] = system: human cardiac tissue strands (hESC, Hes2 derived cardiomyocytes); assay: Biorod drug testing: tissue beating pattern and contractile force by polymer wire deflection; type: cell-based
Procedure: Cardiomyocytes were derived from human embryonic stem cell lines (hESC, Hes2). Embryoid bodies (EBs) were differentiated to the cardiovascular lineage and disassociated as previously described in Device 1 Methods. Before cell seeding, micro-well surface was rinsed with 5% (w/v) Pluronic Acid (Sigma P2443) and then air dried in the bio-safety cabinet. hESC derived cardiomyocytes were suspended at 200 million/ml (unless specified otherwise) in Collagen Type I based gel (3.0 mg/ml of rat tail collagen type I (BD Biosciences) neutralized by 1N NaOH and 10×M199 media as described by the manufacturer) with the supplements of […], 1% (v/v) HEPES, 10% (v/v) Matrigel (BD Biosciences), and […]. Suspended cardiomyocytes were then seeded into the cell culture channel (2.5 μl per well). After 30 min incubation at 37° C. to induce the gelation, appropriate media were added. After seeding, cells were kept in culture for 7 days to allow collagen matrix remodeling and assembly around the wires. Cardiac tissue strands were kept in culture for up to 21 days with media change every 2-3 days. Preferably, the tissue strands should be kept in culture for at least 2 weeks to allow for maturation; however there is no limitation on the maximum culture duration. Cardiac tissue strands were seeded to observe the stability and reproducibility of tissue in long term culture. After seeding, brightfield images (see FIG. 39A for an example) of the tissue strands were taken every day (n=3 per group) using optical microscope (Olympus CKX41) and the diameters of the tissue strands at four distinct locations were analyzed with imageJ (see FIG. 39B for an example). Tissue strand lengths were also analyzed with same method.
Tissue contractile behavior tracing and measurement was carried out. POMac is auto-fluorescent at a wide range of wavelenths; therefore the wires were imaged with a fluorescence microscope under DAPI channel (e.g. 461 nm wavelength) to trace the bending movements of the wires. The POMac is auto-fluorescent at a wide range of wavelengths, including under FITC and Tritc channels. Images were taken at 25 frames per second (fps) (see FIG. 39C). Image sequences were analyzed with ImageJ software using tracking plugin. To calculate the forces originated from cardiac tissues, beam deflection formula with uniformly distributed load in the middle section was used here. […] The engineered cardiac tissues were paced at 2 Hz frequency. From this image sequence, contraction and relaxation time of beating can be estimated. […] Tissue stretching wires can be considered uniformly distributed Load, Wo (Load per force bearing length), which can be calculated with displacement of center point of wires in image sequence, and F can be calculated as well. […] Briefly, entire beam length was L. Section of wire with tissue wrapping around it was experiencing load. Here, the load was assumed to be evenly distributed throughout this section, and Wo was load per length. […] The distance between side of the tissue and a well wall is a, which was assumed equal for both sides. The deflection at center point was y.
Drug testing was carried out.

hESC-CM biowires (Hes2) [9] = assay: Chronic drug exposure of biowires: quantitative RT-PCR of fetal gene program; type: cell-based, human; details: 7 days treatment: ISO 100 nM, Et-1 150 nM, AngII 200 nM, vs untreated control
Procedure: as §1
Quantitative RT-PCR. RT-PCR was performed as previously described. Total RNA was prepared with the High Pure RNA Isolation Kit (Roche) and treated with RNase-free DNase (Roche). RNA was reverse transcribed into cDNA using random hexamers and Oligo (dT) with SuperScript VILO (Invitrogen). RT-qPCR was performed on a LightCycler 480 (Roche) using LightCycler 480 SYBR Green I Master (Roche). Expression levels were normalized to the housekeeping genes TATA box binding protein (TBP) or Glyceraldehyde 3-phosphate dehydrogenase (GAPDH).

hESC-CM biowires (Hes2) [10] = assay: Chronic drug exposure: ELISA of soluble BNP in conditioned media; type: cell-based, human
Procedure: as §1, with “performed. ELISA. Quantification of soluble BNP from the conditioned media was performed using commercially available ELISA kits.” for “performed.”

Structure (SMILES) | α-actinin structure (cytoskeleton) of cardiomyocytes [1] | spontaneous beating of human cardiac tissue strands ([2]; vs basal level) | beating frequency after NO treatment normalized to the basal level ([2]; n=3) [%] | force of contraction [3] | contractile apparatus (transmission electron microscopy) (hESC-CM biowires (Hes2) [4]) | cell viability (live/dead staining) [5] | conduction velocity (hESC-CM biowires (Hes2) [6]) | increase in cell size [7] [%] | tissue contractile forces normalized to forces before drug addition ([8]; 100 nM) | tissue contractile forces normalized to forces before drug addition ([8]; 1 μM) | tissue contractile forces normalized to forces before drug addition ([8]; 10 μM) | response of human cardiac tissues to well-known drugs ([8]; summary statement) | ANF and BNP gene expression (fetal gene program) (hESC-CM biowires (Hes2) [9]) | ANF and BNP gene expression (fetal gene program) (hESC-CM biowires (Hes2) [9]; listed as Isoproterenol) | BNP in the conditioned media (hESC-CM biowires (Hes2) [10]; chronic treatment) | increase in the secretion of BNP (hESC-CM biowires (Hes2) [10]; day 2 post-treatment, media conditioned for 48 h) [fold] | increase of BNP in the media (hESC-CM biowires (Hes2) [10]; day 7, media conditioned for 24 h) [%]
[N]=O [NO, nitric oxide] | disrupted α-actinin structure; also recorded: overall punctate pattern | significantly slowed down the beating | 74±3 | – | – | – | – | – | – | – | – | – | – | – | – | – | –
CC(C)NCC(O)c1ccc(O)c(O)c1 (centres unmarked) [ISO, Isoproterenol] | – | – | – | significantly reduced force of contraction | significant absence of distinct Z-disks and the lack of a defined sarcomere structure | no differences | the same | 35 | positive inotropic action | positive inotropic action | slight negative inotropic effect | responded appropriately | significantly induced | induction of brain natriuretic peptide (BNP) and atrial natriuretic factor (ANF) gene expression | BNP can also be found in the conditioned media | 2.5 | 70
